“And” between values parts separate entries of the source, which are not always exact repeats. Equal entries are not always repeated.
Key:
SARS-CoV-2 [1] = experiment: (§1) Functional immunofluorescence assay to measure dose dependent changes in antiviral-drug inhibitory efficacy against hCoV-19/USA-WA1/2020 in HeLa-ACE2 cells which are seeded prior to drug treatment, then infected with hCoV-19/USA-WA1/2020. Cells are fixed with 10 % formaldehyde, washed with PBS, permeabilized with permeabilization buffer, then washed with wash buffer. The cells are incubated with nucleoprotein primary antibody IC7C7. Following primary staining, cells are washed with wash buffer and incubated in a solution of with Alexa fluor 488 and DAPI. Infected and uninfected cells are visualized and analyzed by Gen5 software. The assay has been performed by Icahn School of Medicine at Mount Sinai.; assay type: organism-based, Homo sapiens
SARS-CoV-2 [2] = experiment: as §1, with “iPSC-Pneumocyte” for “HeLa-ACE2”, “to” for “to drug”; assay type: organism-based, Homo sapiens
[3] = tested on: Middle East respiratory syndrome-related coronavirus; experiment: microbe, parasite or virus in culture; assay type: functional, organism-based, Chlorocebus sabaeus, VeroE6/TMPRSS2
[4] = Severe acute respiratory syndrome coronavirus 2, Pneumocyte
[5] = Severe acute respiratory syndrome coronavirus 2, HeLa-ACE2
[6] = Middle East respiratory syndrome-related coronavirus, VeroE6/TMPRSS2

SMILES: CC(C)[C@@H](Nc1ncnc2[nH]ccc12)c1ccc2c(c1)S(=O)(=O)CCC2
- EC90 (SARS-CoV-2 [1]; Severe acute respiratory syndrome coronavirus 2, HeLa-ACE2, Baseline response 0 %, Hill slope -1.838, Maximum measured 112.988 %, Maximum response 100 %, Minimum measured 76.031 %, R squared 0.586): > 50 µM
- EC90 (SARS-CoV-2 [1]; Severe acute respiratory syndrome coronavirus 2, HeLa-ACE2, Baseline response 0 %, Hill slope -2.172, Maximum measured 117.108 %, Maximum response 100 %, Minimum measured 66.698 %, R squared 0.616): > 20 µM
- EC50 (SARS-CoV-2 [1]; hela-ace2): > 50 µM
- EC50 (SARS-CoV-2 [2]; [4]): > 50 µM
- EC90 (SARS-CoV-2 [2]; Severe acute respiratory syndrome coronavirus 2, Pneumocyte, Baseline response 0 %, Hill slope -1.893, Maximum measured 187.741 %, Maximum response 100 %, Minimum measured 35.01 %, R squared 0.158): > 50 µM
- EC90 (SARS-CoV-2 [2]; Severe acute respiratory syndrome coronavirus 2, Pneumocyte, Maximum measured 138.005 %, Minimum measured 85.609 %): > 50 µM
- EC50 (SARS-CoV-2 [2]; pneumocyte): 29.9 µM

SMILES: CC(C)[C@@H](Nc1ncnc2[nH]c(C(=O)N[C@H]3CCN(C)C3)cc12)c1ccc2c(c1)S(=O)(=O)CCC2
- EC50 (SARS-CoV-2 [1]; [5]): > 20 µM
- EC90 (SARS-CoV-2 [1]; Severe acute respiratory syndrome coronavirus 2, HeLa-ACE2, Baseline response 0 %, Hill slope -0.107, Maximum measured 102.123 %, Maximum response 100 %, Minimum measured 84.181 %, R squared 0.016): > 20 µM
- EC50 (SARS-CoV-2 [2]; [4]): > 50 µM
- EC90 (SARS-CoV-2 [2]; Severe acute respiratory syndrome coronavirus 2, Pneumocyte, Baseline response 0 %, Hill slope -0.859, Maximum measured 114.501 %, Maximum response 100 %, Minimum measured 59.767 %, R squared 0.551): > 50 µM

SMILES: CNC(=O)c1cc2c(N[C@@H](c3ccc4c(c3)OCCO4)C(C)C)ncnc2[nH]1
- EC50 (SARS-CoV-2 [1]; [5]): > 50 µM
- EC90 (SARS-CoV-2 [1]; Severe acute respiratory syndrome coronavirus 2, HeLa-ACE2, Baseline response 0 %, Hill slope -1.825, Maximum measured 114.293 %, Maximum response 100 %, Minimum measured 64.264 %, R squared 0.688): > 50 µM
- EC50 (SARS-CoV-2 [2]; [4]): > 50 µM
- EC90 (SARS-CoV-2 [2]; Severe acute respiratory syndrome coronavirus 2, Pneumocyte, Maximum measured 153.61 %, Minimum measured 91.144 %): > 50 µM

SMILES: CC(C)[C@H](Nc1ncnc2[nH]c(-c3cnn(CC(N)=O)c3)cc12)c1ccc2c(c1)S(=O)(=O)CCC2
- EC50 (SARS-CoV-2 [1]; [5]): > 20 µM
- EC90 (SARS-CoV-2 [1]; Severe acute respiratory syndrome coronavirus 2, HeLa-ACE2, Baseline response 0 %, Hill slope 1.066, Maximum measured 108.399 %, Maximum response 100 %, Minimum measured 92.21 %, R squared 0.046): > 20 µM
- EC50 (SARS-CoV-2 [2]; [4]): > 50 µM
- EC90 (SARS-CoV-2 [2]; Severe acute respiratory syndrome coronavirus 2, Pneumocyte, Baseline response 0 %, Hill slope -0.706, Maximum measured 119.318 %, Maximum response 100 %, Minimum measured 70.174 %, R squared 0.133): > 50 µM

SMILES: CCNC(=O)c1cc2c(N[C@@H](c3ccc4c(c3)OCCO4)C(C)C)ncnc2[nH]1
- EC50 (SARS-CoV-2 [1]; [5]): > 20 µM
- EC90 (SARS-CoV-2 [1]; Severe acute respiratory syndrome coronavirus 2, HeLa-ACE2, Baseline response 0 %, Hill slope -1.909, Maximum measured 113.12 %, Maximum response 100 %, Minimum measured 80.543 %, R squared 0.285): > 20 µM
- EC90 (SARS-CoV-2 [1]; Severe acute respiratory syndrome coronavirus 2, HeLa-ACE2, Maximum measured 94.861 %, Minimum measured 54.623 %): > 20 µM
- EC90 (SARS-CoV-2 [1]; Severe acute respiratory syndrome coronavirus 2, HeLa-ACE2, Maximum measured 122.873 %, Minimum measured 70.184 %): > 20 µM
- EC50 (SARS-CoV-2 [2]; [4]): 41.1 µM
- EC90 (SARS-CoV-2 [2]; Severe acute respiratory syndrome coronavirus 2, Pneumocyte, Baseline response 0 %, Hill slope -8.576, Maximum measured 136.848 %, Maximum response 100 %, Minimum measured 15.577 %, R squared 0.308): > 50 µM

SMILES: CNCc1cc(-c2cc3c(N[C@@H](c4ccc5c(c4)S(=O)(=O)NCC5)C(C)C)ncnc3[nH]2)co1
- EC50 (SARS-CoV-2 [1]; [5]): > 20 µM
- EC90 (SARS-CoV-2 [1]; Severe acute respiratory syndrome coronavirus 2, HeLa-ACE2, Baseline response 0 %, Hill slope -0.236, Maximum measured 99.818 %, Maximum response 100 %, Minimum measured 81.688 %, R squared 0.12): > 20 µM
- EC50 (SARS-CoV-2 [2]; [4]): 30.7 µM
- EC90 (SARS-CoV-2 [2]; Severe acute respiratory syndrome coronavirus 2, Pneumocyte, Baseline response 0 %, Hill slope -1.273, Maximum measured 102.14 %, Maximum response 100 %, Minimum measured 30.967 %, R squared 0.783): > 50 µM

SMILES: CC(C)[C@@H](Nc1ncnc2[nH]ccc12)c1ccc2c(c1)NC(=O)CO2
- EC50 (SARS-CoV-2 [1]; [5]): > 50 µM
- EC90 (SARS-CoV-2 [1]; Severe acute respiratory syndrome coronavirus 2, HeLa-ACE2, Baseline response 0 %, Hill slope -2.239, Maximum measured 123.573 %, Maximum response 100 %, Minimum measured 69.199 %, R squared 0.469): > 50 µM
- EC50 (SARS-CoV-2 [2]; [4]): > 50 µM
- EC90 (SARS-CoV-2 [2]; Severe acute respiratory syndrome coronavirus 2, Pneumocyte, Maximum measured 145.289 %, Minimum measured 92.172 %): > 50 µM

SMILES: CC(C)[C@H](Nc1ncnc2[nH]c(-c3cnn(C)c3C#N)cc12)c1ccc2c(n1)OCCO2
- EC50 [3, 6]: > 5 µM
- EC90 [3, 6]: > 5 µM
- EC90 (SARS-CoV-2 [1]; Baseline response 0 %, EC90 CI (lower) 0.11 uM, EC90 CI (upper) 0.158 uM, Hill slope -1.629, Maximum measured 105.242 %, Maximum response 100 %, Minimum measured 1.508 %, R squared 0.979): 1.96 µM
- EC50 (SARS-CoV-2 [1]; [5]): 0.819 µM
- EC90 (SARS-CoV-2 [1]; Severe acute respiratory syndrome coronavirus 2, HeLa-ACE2, Baseline response 0 %, EC90 CI (lower) 0.09 uM, EC90 CI (upper) 0.442 uM, Hill slope -1.557, Maximum measured 125.33 %, Maximum response 100 %, Minimum measured 4.425 %, R squared 0.913): 3.36 µM
- EC50 (SARS-CoV-2 [1]; hela-ace2): 0.508 µM

SMILES: CC(C)[C@H](Nc1ncnc2[nH]ccc12)c1ccc2c(c1)S(=O)(=O)CCC2
- EC90 [3]: > 20 µM
- EC50 ([3]; veroe6/tmprss2): 2.42 µM and > 20 µM and > 5 µM
- EC50 (SARS-CoV-2 [1]; [5]): > 20 µM
- EC90 (SARS-CoV-2 [1]; Severe acute respiratory syndrome coronavirus 2, HeLa-ACE2, Maximum measured 129.029 %, Minimum measured 103.942 %): > 20 µM
- EC90 (SARS-CoV-2 [1]; Severe acute respiratory syndrome coronavirus 2, HeLa-ACE2, Maximum measured 158.705 %, Minimum measured 84.767 %): > 20 µM

— ChEMBL document CHEMBL5441381, “ASAP - In vitro antiviral effect” (2024)
